# Assay results as given in ChEMBL document CHEMBL4376829, “Discovery and biological evaluation of vinylsulfonamide derivatives as highly potent, covalent TEAD autopalmitoylation inhibitors” (Eur J Med Chem, 2019).
# Calls of active or inactive are those of the source. The rule behind the calls is not given here.
# Legend:
# [1] = target: Mitogen-activated protein kinase kinase kinase kinase 4 (Homo sapiens) (UniProt O95819); experiment: Inhibition of recombinant human MAP4K4 (1 to 328 residues) at 10 uM using RLGRDKYKTLRQIRQ as substrate measured after 40 mins in presence of [gamma33P]ATP by scintillation counting method relative to control
# [2] = target: DNA (cytosine-5)-methyltransferase 1 (Homo sapiens) (UniProt P26358); experiment: Inhibition of human DNMT1 at 10 uM after 1 hr by radioisotope-based assay relative to control
# DNA (cytosine-5)-methyltransferase 1 (Homo sapiens), sequence (P26358 whole entry): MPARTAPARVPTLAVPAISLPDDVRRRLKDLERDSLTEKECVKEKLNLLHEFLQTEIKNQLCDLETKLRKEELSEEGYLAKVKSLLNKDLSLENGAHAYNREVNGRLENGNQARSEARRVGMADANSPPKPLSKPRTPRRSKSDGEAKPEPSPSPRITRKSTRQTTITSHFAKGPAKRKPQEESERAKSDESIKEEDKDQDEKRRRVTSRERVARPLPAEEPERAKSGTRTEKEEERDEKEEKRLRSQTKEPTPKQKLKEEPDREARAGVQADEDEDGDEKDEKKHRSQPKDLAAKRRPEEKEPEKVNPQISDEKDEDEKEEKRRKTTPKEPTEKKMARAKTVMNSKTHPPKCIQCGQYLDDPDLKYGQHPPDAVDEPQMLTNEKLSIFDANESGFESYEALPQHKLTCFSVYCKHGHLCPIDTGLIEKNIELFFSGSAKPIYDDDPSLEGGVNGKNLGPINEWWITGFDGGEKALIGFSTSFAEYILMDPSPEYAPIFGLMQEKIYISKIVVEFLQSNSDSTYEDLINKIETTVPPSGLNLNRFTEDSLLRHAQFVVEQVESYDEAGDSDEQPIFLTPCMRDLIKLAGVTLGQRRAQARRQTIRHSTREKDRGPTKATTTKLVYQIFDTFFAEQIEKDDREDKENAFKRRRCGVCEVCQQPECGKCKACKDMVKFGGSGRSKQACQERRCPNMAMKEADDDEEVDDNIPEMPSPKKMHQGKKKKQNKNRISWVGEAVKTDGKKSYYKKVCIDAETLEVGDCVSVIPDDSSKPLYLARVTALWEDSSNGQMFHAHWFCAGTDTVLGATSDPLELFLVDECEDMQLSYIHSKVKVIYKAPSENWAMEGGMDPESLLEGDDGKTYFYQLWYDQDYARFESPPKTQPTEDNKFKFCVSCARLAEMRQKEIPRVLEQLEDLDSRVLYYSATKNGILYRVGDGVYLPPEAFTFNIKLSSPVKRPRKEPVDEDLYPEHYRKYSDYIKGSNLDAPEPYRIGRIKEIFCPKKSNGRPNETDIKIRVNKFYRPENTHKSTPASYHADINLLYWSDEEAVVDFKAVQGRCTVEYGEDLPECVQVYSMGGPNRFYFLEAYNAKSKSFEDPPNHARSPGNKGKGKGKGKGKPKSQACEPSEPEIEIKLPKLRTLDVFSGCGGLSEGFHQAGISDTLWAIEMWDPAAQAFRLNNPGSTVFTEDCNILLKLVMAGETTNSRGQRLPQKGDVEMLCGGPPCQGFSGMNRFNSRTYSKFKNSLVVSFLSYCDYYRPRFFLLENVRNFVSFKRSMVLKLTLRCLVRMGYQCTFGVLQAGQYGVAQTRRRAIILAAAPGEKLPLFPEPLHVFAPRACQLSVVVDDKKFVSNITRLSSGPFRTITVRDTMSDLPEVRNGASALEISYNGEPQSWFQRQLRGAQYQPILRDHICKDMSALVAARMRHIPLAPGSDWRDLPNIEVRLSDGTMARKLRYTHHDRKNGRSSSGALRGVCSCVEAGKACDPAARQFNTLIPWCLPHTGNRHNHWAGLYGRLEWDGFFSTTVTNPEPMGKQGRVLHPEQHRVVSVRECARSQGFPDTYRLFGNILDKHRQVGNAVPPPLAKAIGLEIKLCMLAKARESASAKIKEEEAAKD
# Homo sapiens [3] = organism: Homo sapiens; experiment: Inhibition of TEAD transcriptional activity in human HCT116 cells assessed as reduction in CYR61 expression by qRT-PCR analysis; format: cell-based
# [4] = target: Transcriptional enhancer factor TEF-3 (Homo sapiens, UniProt Q15561); experiment: Binding affinity to N-terminal His6-tagged human TEAD4-YBD (217 to 434 residues) expressed in Escherichia coli C43 (DE3) cells assessed as change in melting temperature at 1:2 ratio by SYPRO-dye based thermal shift assay
# [5] = target: N-lysine methyltransferase SMYD2 (Homo sapiens) (UniProt Q9NRG4); experiment: Inhibition of human SMYD2 at 10 uM relative to control
# N-lysine methyltransferase SMYD2 (Homo sapiens), sequence (Q9NRG4 whole entry): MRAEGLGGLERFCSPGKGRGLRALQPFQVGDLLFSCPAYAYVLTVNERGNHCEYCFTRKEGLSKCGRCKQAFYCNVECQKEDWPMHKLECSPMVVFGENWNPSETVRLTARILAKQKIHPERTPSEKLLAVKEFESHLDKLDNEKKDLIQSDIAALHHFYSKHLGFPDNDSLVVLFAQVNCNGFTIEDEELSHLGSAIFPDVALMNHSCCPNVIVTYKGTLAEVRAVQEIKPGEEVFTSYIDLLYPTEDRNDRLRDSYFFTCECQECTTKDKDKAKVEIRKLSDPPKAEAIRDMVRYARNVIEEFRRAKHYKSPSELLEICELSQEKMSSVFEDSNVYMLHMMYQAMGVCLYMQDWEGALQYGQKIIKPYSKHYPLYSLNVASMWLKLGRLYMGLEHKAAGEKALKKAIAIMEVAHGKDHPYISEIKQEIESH
# [6] = system: eIF-2-alpha kinase GCN2 (Homo sapiens), Q9P2K8 [E556G]; experiment: Inhibition of full length recombinant human GCN2 E556G mutant at 10 uM using RSRSRSRSRSRSRSR as substrate after 40 mins in presence of [gamma33P]ATP by scintillation counting method relative to control
# [7] = target: Serine/threonine-protein kinase PAK 1 (Homo sapiens) (UniProt Q13153); experiment: Inhibition of recombinant human PAK1 (150 to end residues) at 10 uM using RRRLSFAEPG as substrate measured after 40 mins in presence of [gamma33P]ATP by scintillation counting method relative to control
# Serine/threonine-protein kinase PAK 1 (Homo sapiens), sequence (Q13153 whole entry, the tested form may be a part): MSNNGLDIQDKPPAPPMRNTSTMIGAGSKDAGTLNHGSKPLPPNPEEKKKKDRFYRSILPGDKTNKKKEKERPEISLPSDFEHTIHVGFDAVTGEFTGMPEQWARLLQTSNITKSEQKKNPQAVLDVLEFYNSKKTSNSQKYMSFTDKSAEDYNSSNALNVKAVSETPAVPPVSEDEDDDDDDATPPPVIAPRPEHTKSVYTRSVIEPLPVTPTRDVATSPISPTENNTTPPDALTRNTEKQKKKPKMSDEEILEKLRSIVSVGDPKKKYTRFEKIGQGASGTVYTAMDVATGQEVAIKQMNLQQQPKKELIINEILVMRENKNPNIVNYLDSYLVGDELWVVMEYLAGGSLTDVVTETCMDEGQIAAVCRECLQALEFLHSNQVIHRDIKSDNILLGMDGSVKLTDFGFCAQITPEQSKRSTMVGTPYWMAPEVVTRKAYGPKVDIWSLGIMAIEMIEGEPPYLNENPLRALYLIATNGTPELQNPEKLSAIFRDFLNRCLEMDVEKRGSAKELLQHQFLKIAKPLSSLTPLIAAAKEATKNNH
# [8] = target: CDK4/Cyclin D3 (Homo sapiens) (UniProt P11802+P30281); experiment: Inhibition of recombinant full-length human CDK4/cyclinD3 at 10 uM using Rb fragment as substrate measured after 40 mins in presence of [gamma33P]ATP by scintillation counting method relative to control; format: protein-complex assay
# [9] = target: Cyclin-dependent kinase-like 4 (Homo sapiens) (UniProt Q5MAI5); experiment: Inhibition of human CDKL4 at 10 uM by radiometric method relative to control
# [10] = system: Transcriptional enhancer factor TEF-3 (Homo sapiens), Q15561 [C410A]; experiment: Binding affinity to TEAD4-YBD C410A mutant (unknown origin) assessed as change in melting temperature by SYPRO-dye based thermal shift assay
# [11] = target: Serine/threonine-protein kinase NLK (Homo sapiens) (UniProt Q9UBE8); experiment: Inhibition of recombinant human NLK (121 to end residues) at 10 uM using myelin basic protein as substrate measured after 40 mins in presence of [gamma33P]ATP by scintillation counting method relative to control
# [12] = target: Serine/threonine-protein kinase mTOR (Homo sapiens) (UniProt P42345); experiment: Inhibition of recombinant full-length human mTOR at 10 uM after 40 mins in presence of [gamma33P]ATP by scintillation counting analysis relative to control
# [13] = system: TGF-beta receptor type-1 (Homo sapiens), P36897 [T204D]; experiment: Inhibition of recombinant human TGFBR1 T204D mutant (200 to end residues) at 10 uM using casein as substrate measured after 40 mins in presence of [gamm33P]ATP by scintillation counting method relative to control
# Homo sapiens [14] = organism: Homo sapiens; experiment: Inhibition of recombinant full length human Aurora A I31F mutant at 10 uM using LRRASLG as substrate incubated for 40 mins in presence of [gamma-33P]-ATP by scintillation counting method relative to control
# [15] = target: Calcium/calmodulin-dependent protein kinase type IV (Homo sapiens) (UniProt Q16566); experiment: Inhibition of full-length recombinant human Camk4 at 10 uM using calmodulin as substrate after 40 mins by in presence of [gamma33P]ATP by scintillation counting method relative to control
# Homo sapiens [16] = organism: Homo sapiens; experiment: Inhibition of TEAD (unknown origin) expresssed in HEK293T cells assessed as reduction in luciferase activity at 10 to 20 uM by dual-luciferase reporter gene assay; format: cell-based
# [17] = system: Transcriptional enhancer factor TEF-3 (Homo sapiens), Q15561 [C335A]; experiment: Binding affinity to TEAD4-YBD C335A mutant (unknown origin) assessed as change in melting temperature by SYPRO-dye based thermal shift assay
# [18] = target: Bromodomain-containing protein 4 (Homo sapiens) (UniProt O60885); experiment: Inhibition of human BRD4-BD1 at 10 uM relative to control
# [19] = target: Tyrosine-protein kinase Fes/Fps (Homo sapiens) (UniProt P07332); experiment: Inhibition of recombinant human FES (2 to end residues) at 10 uM using poly(Glu, Tyr) 4:1 as substrate measured after 40 mins in presence of [gamma33P]ATP by scintillation counting method relative to control
# Tyrosine-protein kinase Fes/Fps (Homo sapiens), sequence (P07332 whole entry): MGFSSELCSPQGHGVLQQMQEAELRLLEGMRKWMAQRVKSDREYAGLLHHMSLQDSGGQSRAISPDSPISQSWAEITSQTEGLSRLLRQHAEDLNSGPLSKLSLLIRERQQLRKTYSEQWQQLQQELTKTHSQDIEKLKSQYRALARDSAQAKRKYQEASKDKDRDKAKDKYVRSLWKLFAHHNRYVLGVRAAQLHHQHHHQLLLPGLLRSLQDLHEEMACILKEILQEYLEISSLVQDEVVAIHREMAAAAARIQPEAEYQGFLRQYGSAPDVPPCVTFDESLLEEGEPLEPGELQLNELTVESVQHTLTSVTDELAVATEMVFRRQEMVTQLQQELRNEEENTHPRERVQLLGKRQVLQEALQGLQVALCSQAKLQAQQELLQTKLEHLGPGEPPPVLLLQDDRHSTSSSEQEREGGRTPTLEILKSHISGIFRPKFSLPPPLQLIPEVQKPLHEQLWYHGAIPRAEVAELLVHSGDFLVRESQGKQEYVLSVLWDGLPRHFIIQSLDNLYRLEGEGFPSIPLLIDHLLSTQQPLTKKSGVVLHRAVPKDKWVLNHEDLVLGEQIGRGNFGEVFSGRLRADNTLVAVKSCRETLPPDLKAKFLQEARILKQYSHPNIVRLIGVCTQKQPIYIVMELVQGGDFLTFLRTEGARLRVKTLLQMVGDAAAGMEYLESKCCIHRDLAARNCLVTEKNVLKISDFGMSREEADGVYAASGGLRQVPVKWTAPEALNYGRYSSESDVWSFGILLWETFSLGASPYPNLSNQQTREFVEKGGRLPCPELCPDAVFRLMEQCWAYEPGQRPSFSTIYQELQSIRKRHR
# [20] = target: Serine/threonine-protein kinase Chk1 (Homo sapiens) (UniProt O14757); experiment: Inhibition of recombinant full length human CHK1 at 10 uM using KKKVSRSGLYRSPSMPENLNRPR as substrate measured after 40 mins in presence of [gamma33P]ATP by scintillation counting method relative to control
# Serine/threonine-protein kinase Chk1 (Homo sapiens), sequence (O14757 whole entry): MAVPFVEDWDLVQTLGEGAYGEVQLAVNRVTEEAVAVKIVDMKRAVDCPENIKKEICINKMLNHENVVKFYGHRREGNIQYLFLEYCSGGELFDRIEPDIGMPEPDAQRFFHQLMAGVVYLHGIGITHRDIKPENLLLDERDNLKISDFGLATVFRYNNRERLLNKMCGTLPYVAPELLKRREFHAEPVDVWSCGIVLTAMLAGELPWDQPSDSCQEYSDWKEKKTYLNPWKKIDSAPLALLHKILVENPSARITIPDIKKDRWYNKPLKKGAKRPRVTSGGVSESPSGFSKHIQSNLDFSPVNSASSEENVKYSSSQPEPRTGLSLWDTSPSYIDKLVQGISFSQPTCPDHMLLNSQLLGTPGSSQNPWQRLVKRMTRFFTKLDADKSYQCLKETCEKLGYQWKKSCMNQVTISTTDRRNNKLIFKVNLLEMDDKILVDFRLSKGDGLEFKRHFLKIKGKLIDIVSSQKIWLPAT
# [21] = target: Interferon-induced, double-stranded RNA-activated protein kinase (Homo sapiens) (UniProt P19525); experiment: Inhibition of recombinant human PKR (252 to end residues) at 10 uM using RSRSRSRSRSRSRSR as substrate measured after 40 mins in presence of [gamma33P]ATP by scintillation counting method relative to control
# Interferon-induced, double-stranded RNA-activated protein kinase (Homo sapiens), sequence (P19525 whole entry): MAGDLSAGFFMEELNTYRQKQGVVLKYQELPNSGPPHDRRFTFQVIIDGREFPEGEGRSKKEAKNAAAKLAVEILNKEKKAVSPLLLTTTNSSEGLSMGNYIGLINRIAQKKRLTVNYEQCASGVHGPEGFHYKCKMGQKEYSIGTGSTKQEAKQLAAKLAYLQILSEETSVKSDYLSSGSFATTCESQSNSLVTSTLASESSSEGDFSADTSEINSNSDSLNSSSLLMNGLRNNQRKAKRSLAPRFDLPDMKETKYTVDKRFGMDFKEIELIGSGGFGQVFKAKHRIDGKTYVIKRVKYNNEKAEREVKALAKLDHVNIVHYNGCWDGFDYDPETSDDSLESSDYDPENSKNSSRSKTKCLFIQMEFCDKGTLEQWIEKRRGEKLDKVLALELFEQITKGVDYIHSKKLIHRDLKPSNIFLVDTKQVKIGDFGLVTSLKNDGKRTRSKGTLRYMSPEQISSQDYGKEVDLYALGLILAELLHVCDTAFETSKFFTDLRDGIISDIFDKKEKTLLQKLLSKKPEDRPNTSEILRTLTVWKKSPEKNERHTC
# [22] = target: Dual specificity mitogen-activated protein kinase kinase 1 (Homo sapiens) (UniProt Q02750); experiment: Inhibition of recombinant full-length human MEK1 at 10 uM using unactive MAPK2 as substrate measured after 40 mins in presence of [gamma33P]ATP by scintillation counting method relative to control
# Dual specificity mitogen-activated protein kinase kinase 1 (Homo sapiens), sequence (Q02750 whole entry): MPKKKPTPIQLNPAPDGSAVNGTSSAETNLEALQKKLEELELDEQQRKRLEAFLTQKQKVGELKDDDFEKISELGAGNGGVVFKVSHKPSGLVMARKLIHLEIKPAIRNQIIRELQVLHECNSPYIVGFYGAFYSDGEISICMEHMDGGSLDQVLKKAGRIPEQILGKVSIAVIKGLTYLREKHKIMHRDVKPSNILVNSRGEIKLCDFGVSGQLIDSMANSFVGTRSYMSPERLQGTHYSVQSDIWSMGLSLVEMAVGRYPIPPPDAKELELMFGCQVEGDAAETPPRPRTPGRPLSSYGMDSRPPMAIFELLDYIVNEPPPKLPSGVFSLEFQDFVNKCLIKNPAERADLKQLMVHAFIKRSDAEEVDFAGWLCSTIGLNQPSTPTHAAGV
# Homo sapiens [23] = organism: Homo sapiens; experiment: Inhibition of full-length recombinant human PKA at 10 uM using LRRASLG as substrate after 40 mins by in presence of [gamma33P]ATP by scintillation counting method relative to control
# Homo sapiens [24] = organism: Homo sapiens; experiment: Inhibition of human Ros V2262A mutant(1883 to end residues) at 10 uM using KKKSPGEYVNIEFG as substrate measured after 40 mins in presence of [gamma33P]ATP by scintillation counting method relative to control
# [25] = target: Ribosomal protein S6 kinase alpha-1 (Homo sapiens) (UniProt Q15418); experiment: Inhibition of full length recombinant human Rsk1 at 10 uM using KKKNRTLSVA as substrate after 40 mins in presence of [gamma33P]ATP by scintillation counting method relative to control
# [26] = target: Serine/threonine-protein kinase ULK1 (Homo sapiens) (UniProt O75385); experiment: Inhibition of recombinant human ULK1 (1 to 314 residues) at 10 uM using casein as substrate measured after 40 mins in presence of [gamm33P]ATP by scintillation counting method relative to control
smiles,measurement,setting,value
C=CS(=O)(=O)Nc1ccc(Cc2ccc3ccccc3c2)cc1,inhibition,[1],7%
same,inhibition,[2],15%
same,inhibition,Homo sapiens [3],Dose-dependent effect
same,ΔTm,[4],7.4 °C
same,inhibition,[5],3%
same,inhibition,[6],3%
same,inhibition,[7],5%
same,inhibition,[8],11%
same,inhibition,[9],-6%
same,ΔTm,[10],7.3 °C
same,inhibition,[11],2%
same,inhibition,[12],5%
same,inhibition,[13],-2%
same,inhibition,Homo sapiens [14],-10%
same,inhibition,[15],2%
same,inhibition,Homo sapiens [16],Active
same,ΔTm,[17],5.2 °C
same,inhibition,[18],10%
same,inhibition,[19],0%
same,inhibition,[20],5%
same,inhibition,[21],-8%
same,inhibition,[22],-3%
same,inhibition,Homo sapiens [23],1%
same,inhibition,Homo sapiens [24],-6%
same,inhibition,[25],22%
same,inhibition,[26],7%
